The text below walks through data of EP0114002B1, “Benzothiopyrano(4,3,2,-cd)indazoles, their pharmaceutical compositions and methods for their production” (WARNER-LAMBERT COMPANY, priority 1983, dated 1984).

Structures are written as SMILES.

One assay has as its system L1210 cells. As to the kind of experiment: L1210 murine leukemia cell growth inhibition in vitro. Format: cell-based. The conditions noted are these: Mus musculus, 72 h, Table 1, three days incubation, 50% inhibition of growth, read-out: L1210 in vitro ID50. Put shortly:
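Murine L1210 leukemia cells (3 x 10^4 cells/ml) in RPMI 1640 with 5% FBS were exposed to drug dilutions for 3 days at 37 °C and 5% CO2. Cells were then Coulter-counted, growth was expressed relative to solvent and medium controls, and ID50 was given in mol/L.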

The test system of the next assay is HCT-8 cells. As to the kind of experiment: in vitro proliferating human colon adenocarcinoma (HCA) cell screen. Format: cell-based. The conditions noted are these: Table 1, 60 to 65 hours with compound, 50% inhibition of growth, read-out: HCA—3 in vitro ID50. The procedure, abridged: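 HCT-8 cells grown 48 h at 37 °C in RPMI 1640/10% FCS, then exposed to compound for a further 60–65 h. Nuclei counted by Coulter counter after lysis; percent growth per concentration gives ID50 as molar concentration causing 50% growth inhibition.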

In assay [1] the test system is lymphocytic leukemia P388. As to the kind of experiment: in vivo lymphocytic leukemia P388 test. Also on record: species or system mice. To be noted: Mus musculus, P388, ip, 120 h, read-out: P388 in vivo T/C × 100; for response vs control in vivo at 3.12 mg/kg: Dose 3.12 mg/kg intraperitoneally once daily for five days; for response vs control in vivo at 6.25 mg/kg: Dose 6.25 mg/kg intraperitoneally once daily for five days; for response vs control in vivo at 12.5 mg/kg: Dose 12.50 mg/kg intraperitoneally once daily for five days; for response vs control in vivo at 25 mg/kg: Dose 25.00 mg/kg intraperitoneally once daily for five days. The procedure, abridged: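 CD2F mice, 6-7 per group, inoculated IP with P388 leukemia ascitic cells, then dosed IP once daily for five consecutive days at various doses. Survival and weights tracked for 30 days; activity expressed as treated/control survival time ×100, with ≥125 as efficacy criterion. Deaths of all animals within four days flagged as toxic.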

The test system of assay [2] is Aerobacter aerogenes 0126. The assay is described as follows: in vitro antibacterial/antifungal (ABF) agar-disk diffusion test. The format is cell-based. To be noted: Klebsiella aerogenes, read-out: ABF Zone Diameter (cont. in mg/ml) A. Aero-genes; for zone of inhibition at 100 µg/mL: 0.1 mg/ml; for zone of inhibition at 500 µg/mL: 0.5 mg/ml. How it is done:
(§1) Still another test protocol is the in vitro antibacterial/antifungal (ABF) test. Compounds are tested for antimicrobial activity in an agar-disk diffusion assay, a standard microbiological technique for testing antibiotics'. After incubation of each culture with a test compound, a zone of inhibition is determined. The zone diameter (mm) of active compounds ranges from a minimum of 13.5 mm to as high as 60 mm, with a greater diameter reflecting higher activity. For convenience, values are reported for two gram-negative bacteria (Aerobacter aerogenes 0126 and Escherichia coli 04863), two gram-positive bacteria (Bacillus subtilis 04555 and Streptococcus faecalis 05045 utilizing AM-09 medium), and one mycelial fungus (Penicillium avellaneum M2988).

In the next assay the test system is Bacillus subtilis 04555. The assay is described as above. The format is cell-based. The conditions noted are these: read-out: ABF Zone Diameter (cont. in mg/ml) B. Sub-tilis; for zone of inhibition at 500 µg/mL: 0.5 mg/ml. The procedure: as §1
In a further assay the test system is Escherichia coli 04863. The assay is described as above. The format is cell-based. The conditions noted are these: read-out: ABF Zone Diameter (cont. in mg/ml) E. Coli; for zone of inhibition at 500 µg/mL: 0.5 mg/ml. How it is done: as §1
In assay [3] the test system is Penicillium avellaneum M2988. Described as above. Format: cell-based. The conditions noted are these: Hamigera avellanea, 3 mg/ml, read-out: ABF Zone Diameter (cont. in mg/ml) P. Avell-aneum. How it is done:
as §1

The subject of assay [4] is Streptococcus faecalis 05045. The assay is described as above. To be noted: Enterococcus faecalis, AM-09 medium, read-out: ABF Zone Diameter (cont. in mg/ml) S. Fae-calis; for zone of inhibition at 1000 µg/mL: 1 mg/ml. Format: cell-based. The procedure:
as §1

As for `NCCn1nc2c3c(c(N)ccc31)Sc1ccccc1-2` [CH2CH2NH2 / NH2, 5-amino-2H[1]benzothiopyrano[4,3,2]-cd]indazole-2-ethanamine], in the assay on L1210 cells, the IC50 is 110 nM. Besides, in the assay with HCT-8 cells, the IC50 was determined as 320 nM. Besides, in assay [1], the response vs control in vivo at 3.12 mg/kg was found to be 125%, the response vs control in vivo at 6.25 mg/kg was found to be 131% and the response vs control in vivo at 12.5 mg/kg was 160%. For the same molecule, the zone of inhibition at 100 µg/mL in assay [2] amounted to 17 mm. Also, in the assay on Bacillus subtilis 04555 (1 mg/ml), the zone of inhibition at 1000 µg/mL turned out to be 18 mm. Also, in the assay with Escherichia coli 04863, the zone of inhibition at 500 µg/mL was 19 mm. Also, the zone of inhibition at 3000 µg/mL in assay [3] is 0 mm. Further, the zone of inhibition at 1000 µg/mL in assay [4] worked out at 15 mm.

In the case of `Nc1ccc2c3c(nn2CCNCCO)-c2ccccc2Sc13` [CH2CH2NHCH2CH2OH / NH2], in the assay with L1210 cells, the IC50 turned out to be 170 nM. The IC50 in the assay on HCT-8 cells is 580 nM. Moreover, in assay [1], the response vs control in vivo at 3.12 mg/kg came to 135%, the response vs control in vivo at 6.25 mg/kg came to 143%, the response vs control in vivo at 12.5 mg/kg is 159% and the response vs control in vivo at 25 mg/kg came to 194%. Besides, the zone of inhibition at 500 µg/mL in assay [2] is 16 mm. For the same molecule, the zone of inhibition at 500 µg/mL in the assay with Bacillus subtilis 04555 amounted to 18 mm. Further, the zone of inhibition at 500 µg/mL with Escherichia coli 04863 worked out at 17 mm. For the same molecule, the zone of inhibition at 3000 µg/mL in assay [3] worked out at 15 mm. Further, the zone of inhibition at 1000 µg/mL in assay [4] worked out at 20 mm.

Turning to `OCCNCCNc1ccc2c3c(nn2CCNCCO)-c2ccccc2Sc13` [CH2CH2NHCH2CH2OH / NHCH2CH2NHCH2CH2OH, 2-[[2-[5-[[2-[(2-Hydroxyethyl)amino]ethyl]amino]-2H[1]benzothiopyrano[4,3,2-cd]indazol-2-yl]ethyl]amino]ethanol], the IC50 came to 400 nM with L1210 cells and 480 nM in the assay with HCT-8 cells. Moreover, the response vs control in vivo at 0.75 mg/kg in assay [1] (Dose 0.75 mg/kg intraperitoneally once daily for five days) came to 146%. Besides, the response vs control in vivo at 0.78 mg/kg in assay [1] (Dose 0.78 mg/kg intraperitoneally once daily for five days) was 153%. The response vs control in vivo at 1.5 mg/kg in assay [1] (Dose 1.50 mg/kg intraperitoneally once daily for five days) stood at 155%. For the same molecule, the response vs control in vivo at 1.56 mg/kg in assay [1] (Dose 1.56 mg/kg intraperitoneally once daily for five days) was determined as 180%. Further, the response vs control in vivo at 3 mg/kg in assay [1] (Dose 3.00 mg/kg intraperitoneally once daily for five days) was 187%. The response vs control in vivo at 3.12 mg/kg in assay [1] was found to be 176%. For the same molecule, in assay [1] (Dose 6.00 mg/kg intraperitoneally once daily for five days), the response vs control in vivo at 6 mg/kg turned out to be 218%. Further, the response vs control in vivo at 6.25 mg/kg in assay [1] is 195%. For the same molecule, the response vs control in vivo at 12 mg/kg in assay [1] (Dose 12.00 mg/kg intraperitoneally once daily for five days) is 270%. In addition, the response vs control in vivo at 12.5 mg/kg in assay [1] came to 271%. Also, the zone of inhibition at 500 µg/mL came out at 14 mm in assay [2], 15 mm with Bacillus subtilis 04555 and 14 mm in the assay with Escherichia coli 04863. The zone of inhibition at 3000 µg/mL in assay [3] and in assay [4] (3 mg/ml) was 0 mm each time.

Turning to `O=[N+]([O-])c1ccc2c3c(nn2CCNCCO)-c2ccccc2Sc13` [CH2CH2NHCH2CH2OH / NO2, 2-[[2-(5-Nitro-2H[1]benzothiopyrano[4,3,2-cd]indazol-2-yl)ethyl]amino]ethano], the IC50 came out at 20 nM in the assay on L1210 cells and 100 nM in the assay on HCT-8 cells. The response vs control in vivo at 6.25 mg/kg in assay [1] was found to be 148%. Further, the response vs control in vivo at 12.5 mg/kg in assay [1] was 150%. The response vs control in vivo at 25 mg/kg in assay [1] worked out at 197%. The zone of inhibition at 100 µg/mL (in assay [2]; in the assay with Escherichia coli 04863 (0.1 mg/ml)) was 16 mm each time. The zone of inhibition at 500 µg/mL in the assay on Bacillus subtilis 04555 was found to be 18 mm; in assay [4] (0.5 mg/ml), 15 mm. For the same molecule, the zone of inhibition at 3000 µg/mL in assay [3] was found to be 0 mm.
